Consider one compound from patent publication US20220133894A1, “BISPHOSPHONATE-LINKED COMPOUNDS” (OREGON HEALTH & SCIENCE UNIVERSITY, priority 2019, published 2022).

In one test the test system is VCaP cells. Kind of test: SRB growth inhibition assay, VCaP. The class given is cell-based, human. As to conditions: 10 μM enzalutamide, 10 μM KBU2046 added to control or enzalutamide treated cells, 72 hours. As to the method:
LNCaP or VCaP cells cultured in hormone free media were treated with R1881 (R), KBU2046 (46) and/or enzalutamide (E). (FIGS. 3A and 3B) Effects on AR-responsive gene expression. PSA expression was measured by qRT/PCR, normalized to GAPDH and expressed as a percent of control cells (N=3 replicates); * denotes P<0.05 for groups separated by bar. (FIGS. 3C and 3D) Effects on cell growth. Three day growth assays were performed. Data are the number of viable cells, expressed as % of control (N=3 replicates); * P<0.05 compared to control. (E) Effects on AR activation. Western blots of nuclear (N) and cytoplasmic (C) preparations of cell extracts were probed for AR, laminin 1 or α-tubulin. (FIGS. 3F and 3G) Effects on tumor outgrowth after androgen deprivation therapy. LNCaP/AR-luc cells were implanted subcutaneously (N=6 mice/cohort) or orthotopic (N=15 mice/cohort were implanted; N=5 yielded tumors) into castrate mice, treatment with KBU2046 began as noted, and weekly IVIS imaging performed. Data are tumor size, expressed as luminescence intensity. All data are expressed as mean±SEM.
Enzalutamide mediated growth inhibition was assessed using Sulforhodamine B (SRB) growth inhibition assays, were performed as previously described (49). In brief, LNCaP and VCaP cells were pre-incubated in charcoal-striped medium for 48 hours and then seeded (1.9×10^4) in 96-well plates. […]

The test system of a further test is PC3-luc cells. Kind of test: PCa intracardiac injection model, bone destruction by CT and survival. The class given is in vivo, mice. As to conditions: oral 150 mg KBU2046/kg daily; intraperitoneal ZA 100 μg/kg weekly; CT.
Another test deals with PC3-M-luc cells. Kind of test: PCa orthotopic implantation, primary tumor growth and lung metastasis. It counts as in vivo, mice. As to conditions: orthotopic PC3-M-luc, 150 mg/kg KBU2046 daily. As to the method: To assess the efficacy of a spectrum of docetaxel concentrations, mice received orthotopic implants of PC3-M-luc cells, were treated with 0, 10 or 20 mg/kg docetaxel, and tumor growth monitored with weekly IVIS imaging. […] Subsequently, mice with orthotopic implants of PC3-M-luc cells were treated with docetaxel, KBU2046, docetaxel+KBU2046 or vehicle, as denoted, and effects on primary tumor growth and lung metastasis quantified (FIGS. 2A, 2B, and 2C).
Cohorts of N=10 mice bearing orthotopic implants of PC3-M-luc cells were treated daily with 150 mg/kg KUB2046 (46), intraperitoneal docetaxel 7.5 mg/kg weekly (doc), the combination (doc+46), or with oral and intraperitoneal vehicle (CO). KBU2046 treatment began 3 days before implantation and docetaxel began 1 week after. (A) Lung metastasis measured by qPCR for human Alu sequences, expressed as percent control (B) Weekly IVIS imaging of tumor. (C) Tumor weight. * denotes P<0.05 for differences between cohorts denoted by bars. All data are mean±SEM.
PCa orthotopic implantation: Orthotopic implantation of 2.5×10^5 PC3M-luc into 7-8 week old male athymic mice was performed as previously described by us (5, 52 Xu et al., above; and Pavese et al., J Vis Exp, e50873 (2013)). Daily oral gavage treatment with 150 mg/kg KBU2046 or was initiated 3 days prior to implantation and continued throughout the duration of the study. Weekly IP injections with 7.5 mg/kg docetaxel or control were administered beginning one week post implantation. Primary tumor out growth was monitored via weekly IVIS imaging. At the completion of the study the primary tumor was resected and weighed and lungs were resected and snap frozen. To determine the human PCa metastatic burden in each mouse lung, the snap frozen tissue was pulverized, DNA isolated and Alu-sequencing performed as previously described (19). […] (SEQ ID NO: 3). The 144RH probe was labeled with a 5′ fluorescent reporter (6-FAM) and a 3′ fluorescent quencher (Black Hole Quencher). The relative content of human DNA was calculated with using the comparative CT method, CT (sample)-CT(negative control). All samples were run in triplicate and were repeated.

The test system of the next test is PC3-M cells. Put plainly: PCa subcutaneous implantation, tumor growth. The class given is in vivo. As to conditions: oral 80 mg KBU2046/kg, weekly intraperitoneal docetaxel 20 mg/kg, KBU2046 added to control or docetaxel treated mice. As to the method:
FIG. 1A depicts the effect of chemotherapy on the growth of androgen independent PC3-M PCa cells in vitro. Data are the mean±SEM (N=3 replicates) of cell viability in a 3 day growth assay in the presence of 10 μM KBU2046 or vehicle (control) treated with docetaxel or cabazitaxel. FIG. 1B depicts the effect of chemotherapy on the growth of androgen independent PCa cells in vivo. Mice received subcutaneous implants of PC3-M cells, were monitored until tumors were detectable (250 mm^3), and then treated daily with oral 80 mg KBU2046/kg (46) or vehicle (CO) and with weekly intraperitoneal docetaxel (doc) at 0 or 20 mg/kg, beginning on day 1, and tumor size measured. Data are mean±SEM, with N=20 mice per cohort.
PCa subcutaneous implantation: 2.5×10^5 PC3-M cells in sterile PBS were implanted into the right flank of 6-7 week old male athymic nude mice (Charles River) and tumor growth measurements were performed twice a week as previously described by us (Gordon et al., Chemotherapy-induced monoamine oxidase expression in prostate carcinoma functions as a cytoprotective resistance enzyme and associates with clinical outcomes. PLoS One 9, e104271 (2014)). […] Tumor measurements were obtained in a blinded fashion, and tumor volumes were calculated with the following formula: length×(width)^2×0.5.

For `O=C1c2ccccc2OCC1c1ccc(F)cc1` (stereo not drawn) [KBU2046, 3-(4-fluorophenyl)chroman-4-one], in the test with VCaP cells, the cell growth result is on record as “no significant effect”. Moreover, in the test on PC3-luc cells, the “improvement of femur bone density compared to control” value amounted to 22±2.4% and the “inhibition of bone destruction in the mandible compared to control” value is on record as 33±4.2%. The “decrease of tumor weight compared to control” value with PC3-M-luc cells (docetaxel 7.5 mg/kg weekly) is on record as “no significant effect”. The “decrease of lung metastasis compared to control (human Alu qPCR)” value in the test on PC3-M-luc cells (docetaxel 7.5 mg/kg weekly intraperitoneal) stood at 20%. For the same compound, the tumor growth result in the test with PC3-M cells is “did not significantly affect”.
